The text below walks through data of patent US10906940B2, “Antimicrobial peptides, pharmaceutical compositions, and methods of use thereof” (priority 2014, dated 2021).

≈ marks a conversion by molar mass, not a printed value. Read-outs that look alike come from different tables or passages of the source.

The subject of assay [1] is Enterobacter sakazakii E784. The conditions noted are these: Enterobacter sakazakii E784.
For assay [2], the system named is Klebsiella pneumoniae SBJ-9388. The conditions noted are these: Klebsiella pneumoniae SBJ-9388 (clinical isolate).
The test system of assay [3] is Salmonella enterica serovar Montevideo strain 29N. Description: Spot-on-lawn bioactivity assay (zone of inhibition). The class given is cell-based. The conditions noted are these: 10 μL spotted on lawn of 10^6 cells of S. Montevideo strain 29N, 24 hour incubation.
The subject of assay [4] is Klebsiella pneumoniae SBJ-9483. The conditions noted are these: Klebsiella pneumoniae SBJ-9483 (clinical isolate).
In assay [5] the test system is Klebsiella pneumoniae SBJ-9149. The conditions noted are these: Klebsiella pneumoniae SBJ-9149 (clinical isolate).
Assay [6] concerns Salmonella Newport #17. The settings on record: Salmonella Newport #17.
The test system of assay [7] is E. coli O157: H7 EDL933.
Assay [8] deals with Enterobacter cloacae SBJ-9222. The settings on record: Enterobacter cloacae SBJ-9222 (clinical isolate).
Assay [9] concerns Enterobacter cloacae SBJ-7612. The settings on record: Enterobacter cloacae SBJ-7612 (clinical isolate).
Assay [10] deals with E. coli ATCC 25853. The conditions noted are these: E. coli ATCC 25853.
Assay [11] concerns P. aeruginosa ATCC-27853. The conditions noted are these: P. aeruginosa ATCC-27853.
Assay [12] relates to Enterobacter cloacae SBJ-9395. Type of assay: cell-based. An excerpt:
(§1) The same MIC assay as in Example 6 was used to determine the antimicrobial susceptibility of Compound A, L-form (FIG. 15), and several variants. One variant was Compound A, D-form, with D-Lysine at position 7. Compound B is a variant in the fatty acid chain, with a fatty acid chain composition of C15H29O, and having D-Lys at position 7. Compound C is a variant in the fatty acid chain with a fatty acid chain composition of C11H21O, and having D-Lys at position 7. Variant D is a sequence variant with Phe at position 6 of the cyclic peptide, and having D-Lys at position 7. All variants were chemically synthesized.

For assay [13], the system named is Serratia marcescens SAMN04022954. The class given is cell-based. The conditions noted are these: Serratia marcescens SAMN04022954.
Text: as §1

Assay [14] has as its system Serratia marcescens SAMN 04276914. The class given is cell-based. The settings on record: Serratia marcescens SAMN 04276914.
Text: as §1

Assay [15] concerns Serratia marcescens SAMN 04276915. The class given is cell-based. The conditions noted are these: Serratia marcescens SAMN 04276915.
Text: as §1

The test system of assay [16] is Serratia marcescens SBJ-9047. The class given is cell-based.
Text: as §1

The test system of assay [17] is Serratia marcescens SBJ-8283. The class given is cell-based.
Text: as §1

Assay [18] deals with E. faecalis ATCC 29212. Description: microbe, parasite or virus in culture. The conditions noted are these: Enterococcus faecalis, ATCC29212.
For assay [19], the system named is E. faecium ATCC 2320. Description: microbe, parasite or virus in culture. The settings on record: Enterococcus faecium, ATCC2320. Type of assay: cell-based.
Text: as §1

In assay [20] the test system is E. faecium ATCC 700221. Description: microbe, parasite or virus in culture. Type of assay: cell-based. The settings on record: Enterococcus faecium, ATCC700221.
Text: as §1

Assay [21] relates to E. faecium BAA-2318. Nature of the assay: microbe, parasite or virus in culture. The class given is cell-based. The conditions noted are these: Enterococcus faecium, BAA2318.
Text: as §1

Assay [22] relates to E. faecalis ATCC 51575. Nature of the assay: microbe, parasite or virus in culture. Type of assay: cell-based, Enterococcus faecalis. The conditions noted are these: Enterococcus faecalis, ATCC51575.
Text: as §1

Assay [23] deals with E. faecalis BAA-2365. Nature of the assay: microbe, parasite or virus in culture. The class given is cell-based, Enterococcus faecalis. The settings on record: Enterococcus faecalis, BAA2365.
Text: as §1

The subject of assay [24] is S. aureus ATCC25923. Description: microbe, parasite or virus in culture. The settings on record: Staphylococcus aureus.
Assay [25] concerns S. aureus ATCC 29213. Nature of the assay: microbe, parasite or virus in culture. The conditions noted are these: Staphylococcus aureus, ATCC29213.
Assay [26] has as its system Listeria monocytogenes R2-583. Description: microbe, parasite or virus in culture. The settings on record: R2583.
Assay [27] deals with S. aureus 14. Description: microbe, parasite or virus in culture. Type of assay: cell-based, Staphylococcus aureus.
Text: as §1

For assay [28], the system named is S. aureus 6. Nature of the assay: microbe, parasite or virus in culture. Type of assay: cell-based, Staphylococcus aureus.
Text: as §1

In assay [29] the test system is S. aureus 12. Description: microbe, parasite or virus in culture. Type of assay: cell-based, Staphylococcus aureus.
Text: as §1

In assay [30] the test system is S. aureus 19. Nature of the assay: microbe, parasite or virus in culture. Type of assay: cell-based, Staphylococcus aureus.
Text: as §1

The subject of assay [31] is S. aureus 10. Description: microbe, parasite or virus in culture. Type of assay: cell-based, Staphylococcus aureus.
Text: as §1

The test system of assay [32] is S. aureus 4. Nature of the assay: microbe, parasite or virus in culture. Type of assay: cell-based, Staphylococcus aureus.
Text: as §1

The test system of assay [33] is S. aureus 2. Nature of the assay: microbe, parasite or virus in culture. Type of assay: cell-based, Staphylococcus aureus.
Text: as §1

For assay [34], the system named is S. aureus 8. Nature of the assay: microbe, parasite or virus in culture. The class given is cell-based, Staphylococcus aureus.
Text: as §1

As to Polymyxin B [reference compound], the MIC was found to be 0.5 mg/L in assay [1]; 0.5 mg/L in assay [2]; 0.5 mg/L in assay [4]; 0.5 mg/L in [5]; 1 mg/L in assay [6]; 0.5 mg/L in assay [7]. The MIC in assay [8] was 1 mg/L; in assay [9], 1 mg/L; in assay [10], 0.5 mg/L; in assay [11] it was 1 mg/L; in [12] (Enterobacter cloacae SBJ-9395) it was above 128 mg/L; in [12] (Enterobacter cloacae SBJ-9395 (CRE, clinical isolate)) it was above 128 mg/L. Also, the MIC in [13] is at least 256 mg/L; in [14] it was at least 256 mg/L; in [15] it was at least 256 mg/L; in assay [16] (Serratia marcescens SBJ-9047), above 128 mg/L; in assay [16] (Serratia marcescens SBJ-9047 (CRE, clinical isolate)), above 128 mg/L; in assay [17] (Serratia marcescens SBJ-8283), above 128 mg/L. Moreover, the MIC in [17] (Serratia marcescens SBJ-8283 (CRE, clinical isolate)) was above 128 mg/L. Further, the “minimum inhibitory concentration to show clear ZI” value in assay [3] was 4 mg/L.

`CN[C@H](CC(C)C)C(=O)N[C@H]1C(=O)N[C@@H](CC(N)=O)C(=O)N[C@H]2C(=O)N[C@H]3C(=O)N[C@H](C(=O)N[C@H](C(=O)O)c4cc(O)cc(O)c4-c4cc3ccc4O)[C@H](O)c3ccc(c(Cl)c3)Oc3cc2cc(c3O[C@@H]2O[C@H](CO)[C@@H](O)[C@H](O)[C@H]2O[C@H]2C[C@](C)(N)[C@H](O)[C@H](C)O2)Oc2ccc(cc2Cl)[C@H]1O` [Vancomycin, vancomycin, reference compound]: the MIC in [18] was 2 mg/L (≈ 1.38 µM); in assay [19] it was at least 256 mg/L; in assay [20], at least 256 mg/L; in assay [21], at least 256 mg/L; in assay [22], at least 256 mg/L; in [23], at least 256 mg/L. Further, the MIC in assay [24] stood at 1 mg/L (≈ 0.69 µM); in [25], 1 mg/L (≈ 0.69 µM); in assay [26] it was 1 mg/L (≈ 0.69 µM); in [27] (S. aureus 14 (MRSA, clinical isolate)) it was 1 mg/L (≈ 0.69 µM); in assay [27] (Staphylococcus aureus, MRSA) it was 1 mg/L (≈ 0.69 µM); in assay [28] (S. aureus 6 (MRSA, clinical isolate)) it was 1 mg/L (≈ 0.69 µM). For the same molecule, the MIC in assay [28] (Staphylococcus aureus, MRSA) worked out at 1 mg/L (≈ 0.69 µM); in [29] (S. aureus 12 (MRSA, clinical isolate)) it was 1 mg/L (≈ 0.69 µM); in assay [29] (Staphylococcus aureus, MRSA), 1 mg/L (≈ 0.69 µM); in assay [30] (S. aureus 19 (MRSA, clinical isolate)), 1 mg/L (≈ 0.69 µM); in assay [30] (Staphylococcus aureus, MRSA), 1 mg/L (≈ 0.69 µM); in [31] (S. aureus 10 (MRSA, clinical isolate)), 1 mg/L (≈ 0.69 µM). Moreover, the MIC in assay [31] (Staphylococcus aureus, MRSA) is 1 mg/L (≈ 0.69 µM); in assay [32] (S. aureus 4 (MRSA, clinical isolate)) it was 1 mg/L (≈ 0.69 µM); in assay [32] (Staphylococcus aureus, MRSA), 1 mg/L (≈ 0.69 µM); in assay [33] (S. aureus 2 (MRSA, clinical isolate)), 1 mg/L (≈ 0.69 µM); in [33] (Staphylococcus aureus, MRSA), 1 mg/L (≈ 0.69 µM); in [34] (S. aureus 8 (MRSA, clinical isolate)), 1 mg/L (≈ 0.69 µM). The molecule further showed an MIC in assay [34] (Staphylococcus aureus, MRSA) of 1 mg/L (≈ 0.69 µM).
